ChEMBL document CHEMBL1130448, “CETP inhibitory activity of ceramides, isolated from the gorgonian Acabaria Undulata” (Bioorg Med Chem Lett, 1997)

Target: T1, Cholesteryl ester transfer protein (Homo sapiens, UniProt P11597)
T1 sequence (P11597 whole entry): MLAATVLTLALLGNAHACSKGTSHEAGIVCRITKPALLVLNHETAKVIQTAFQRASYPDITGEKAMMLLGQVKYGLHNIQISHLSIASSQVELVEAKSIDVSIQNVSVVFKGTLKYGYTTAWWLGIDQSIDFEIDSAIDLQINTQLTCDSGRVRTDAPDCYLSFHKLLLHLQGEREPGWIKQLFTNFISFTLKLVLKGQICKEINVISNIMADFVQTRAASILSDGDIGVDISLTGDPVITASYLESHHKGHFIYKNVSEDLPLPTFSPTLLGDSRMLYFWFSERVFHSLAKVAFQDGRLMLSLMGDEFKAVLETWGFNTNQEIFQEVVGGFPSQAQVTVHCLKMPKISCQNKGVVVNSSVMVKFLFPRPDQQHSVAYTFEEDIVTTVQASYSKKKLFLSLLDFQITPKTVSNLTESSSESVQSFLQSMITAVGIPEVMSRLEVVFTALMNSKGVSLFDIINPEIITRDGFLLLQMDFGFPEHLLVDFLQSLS
Assay: Compound was measured for its inhibitory activity against cholesteryl ester transfer protein (CETP)

Structure (SMILES)	IC50 [µM]
CC(C)CNC(=O)/C=C/[C@@H]1C[C@H]1[C@@H]1C[C@H]1[C@@H]1C[C@H]1[C@@H]1C[C@H]1[C@@H]1C[C@H]1/C=C/[C@@H]1C[C@H]1C	25
CCCCCCCCCCCCC/C=C/C(O)C(CO)N(C)C (stereo not given)	6.3
CCCCCCCCCCCCCCC[C@@H](O)[C@@H](N)CO (racemic) [DIHYDROSPINGOSINE]	12.9
CCCCCCCCCCCCC/C=C/[C@@H](O)[C@@H](N)CO [SPHINGOSINE]	11.5
CCCCCCC/C=C/C=C/CC/C=C/[C@@H](O)[C@H](CO)NC(=O)CCCCCCCCCCCCCCC	57.3
CCCCCCCCCCCCC/C=C/C(O)C(N)CO[C@H]1O[C@H](CO)[C@H](O)[C@H](O)[C@H]1O (stereo not given in full)	19.7
CCCCCCCCCCCCCCCC(=O)N[C@@H](CO)[C@H](O)/C=C/CC/C=C/CCCCCCCC(C)C	86.3
CCCCCCCCCCCCC/C=C/[C@@H](O)[C@H](CO)NC(=O)CCCCCCCCCCCCCCC	65.6
CCCCCCCCCCCCC/C=C/[C@@H](O)[C@@H](N)COP(=O)([O-])OCC[N+](C)(C)C [SPHINGOSYLPHOSPHORYLCHLOLINE]	157
CCCCCCCCC/C=C/CC/C=C/[C@@H](O)[C@H](CO)NC(=O)CCCCCCCCCCCCCCC	46.8
